From US8193238B2, “Inhibition of microtubule protrusion in cancer cells” (University of Maryland, Baltimore, priority 2006, dated 2012)
Entries after “also recorded” stand apart in the source; their conditions may differ.

Columns and labels:
EpH4 cells = experiment: Protrusions in suspended cells treated with cytoskeletal inhibitors (EpH4); format: cell-based, mouse
Method: In FIG. 2A, after 15 minutes of suspension, protrusions in EpH4 and MCF10A cells are quite small (Control, white arrows). […] In FIG. 2B, populations of live, suspended cells were scored blindly for two or more protrusions longer than the cell radius. Each bar represents the mean+S.D. for three experiments in which at least 100 single cells were counted.
EpH4 cells were suspended in either DMEM (Control) or media containing 5 μM Latrunculin-A (LA), 1 μM Colchicine or the combination of both drugs for 30 minutes. Cells were then spun onto glass coverslips and fluorescently stained for α-tubulin (green) and polymerized actin (red). Protrusions that are difficult to see by phase contrast are easily discernible with immunostaining for α-tubulin (white arrows). Protrusions contain little polymerized actin, except at points of concentration, which are often at the end (arrowhead).
EpH4 and B19 cells were suspended over 2% agarose coated plates to prevent attachment in either serum-free DMEM or media containing. Latrunculin-A (5 μM) to enhance protrusions. For co-staining of α-tubulin and actin, suspended cells were then centrifuged onto poly-L-lysine coated coverslips (280 g×5 min), fixed in 3.7% formaldehyde in PBS for 10 min, and permeablized with 0.1% Triton X-100 in PBS. Adhered cells were then stained for 1 hr at room temperature using FITC-conjugated anti-α-tubulin (1:200; Sigma), Alexa-594 phalloidin (1:100; Molecular Probes), and Hoescht 33342 (1:5000; Sigma).
In order to initially characterize the cytoskeletal mechanism underlying these protrusions, suspended cells were treated with inhibitors of actin and tubulin polymerization (FIG. 2). After 15 minutes of suspension, the protrusions in untreated EpH4 or MCF10A cells remain fairly short (FIG. 2, white arrows). These early protrusions can often be difficult to detect with phase-contrast microscopy, due to interfering light refraction from the plasma membrane. […] Protrusions were more easily visible with immunofluorescence than phase contrast microscopy (FIG. 3, white arrows). Although actin filament staining was generally low along the length of the protrusion, dense points of actin were often found at the end of protrusions (FIG. 3, arrowheads).

EpH4-Bcl2 cells = experiment: Cell-cell attachment assay; format: cell-based, mouse; settings: EpH4-Bcl2 in 0.3% methylcellulose over agarose, 5 hours; listed as LA
Method: In FIG. 6A, EpH4-Bcl2 cells were suspended over agarose and treated with inhibitors as above. Following treatment, cells were plated into 0.3% methylcellulose media over agarose and the rate of cell-cell attachment was followed by Hoescht DNA staining. […] Similar results were found in three independent experiments. In FIG. 6B, EpH4-Bcl2 cells suspended over agarose for one hour in DMEM or DMEM containing LA (5 μM), Colchicine (1 μM), or the combination. Reattachment of these cells to either uncoated tissue culture plates or those pre-coated with laminin was followed by XTT cell viability assay. Values represent mean+S.D. of raw XTT values of three separate experiments.
B19 cells were seeded onto 10 cm dishes until 80% confluency. The media was aspirated and cells were incubated in fresh growth media containing Hoescht 33342 (1:5000) for 30 min at 37° C. to label all attached cells. The cells were washed twice in PBS, detached by trypsinization, and an equivalent number of cells were resuspended in serum-free media containing 0.3% methylcellulose with either 5 μM Latrunculin A, 100 μM Colchicine, 1 μg/ml vinblastine, or 5 μg/ml nocodazole and plated over 2% agarose-coated 24-well plates. The progression of cell-cell adhesion over time was visualized by the EpiChemi3 Imaging System (UVP, Inc.; Upland, Calif.) using an excitation wavelength of 365 nm and a blue band pass filter. Images were obtained with an attached Hamamatsu CCD camera (Hamamatsu Photonics, Hamamatsu City, Japan) and analyzed with UVP Labworks Image Acquisition and Analysis Software v. 4.6.
To determine if these microtubule protrusions influence the ability of cells to form attachments, the cells were treated with inhibitors of actin or tubulin polymerization and assessed both cell-cell and cell-substratum attachment (FIG. 6). […] Induction of such nonspecific attachment activity in detached mammary epithelial cells could promote tumor cell dissemination, particularly when apoptotic resistance allows this response to continue for extended periods.

[1] = system: detached mammary epithelial cells; experiment: Protrusions of detached mammary epithelial cells, general statements; format: cell-based, human and mouse
Method: Time-lapse video microscopy of detached mammary epithelial cells detected the extension of long, dynamic protrusions of the plasma membrane, and the present inventors have characterized the cytoskeletal mechanism underlying this novel observation. […] This response may be relatively short-lived, in specific embodiments, since mammary epithelial cells die by apoptosis within about 24 hours in suspension. However, cell lines that resist apoptosis through expression of either Bcl-2 or Bcl-xL will persistently form protrusions. Previous studies by the inventors indicate that such apoptotically-resistant cell lines will not form tumors in mice and lie dormant in distant tissues, in specific embodiments of the invention. […] These microtubule processes can extend more than 3 times the cell diameter, and undergo a rapid probing motion more than once per second. Formation of these microtubule protrusions is necessary for efficient cell-cell and cell-substratum attachment. In particular embodiments of the invention, this inherent microtubule response in detached mammary epithelial cells provides at least some of the invasive characteristics of breast cancer, independent of any tumor-specific genetic alteration, for example.
Breast tumor cells enter the bloodstream long before the development of clinically evident metastasis. However, the early presence of such bloodborne cells predicts poor patient outcome. Nearly 90% of human breast tumors arise as carcinomas from mammary epithelial cells, so it is important to characterize how these cells respond to the detached conditions that they would experience in the bloodstream. In the present invention, mammary epithelial cell lines produce long and dynamic protrusions of the plasma membrane when detached. Although human and mouse mammary epithelial cell lines die by apoptosis within 16 hours of detachment, this protrusive response persists for days in cells overexpressing either Bcl-2 or Bcl-xL, for example. […] Since bloodborne metastasis depends on both cell-cell and cell-matrix attachment, microtubule-based protrusions in detached mammary epithelial cells provide a novel target that could influence the metastatic spread of breast tumors.
Detachment-induced increases in Glu-tubulin could promote plasma membrane protrusions of microtubules by preventing efficient capture at the actin cortex. […] Therefore, our current model is that detachment increases stabilized microtubules enriched in Glu-tubulin, while decreased actin polymerization simply promotes extension of these microtubule protrusions.

`C/C1=C/C(=O)O[C@@H]2C[C@@H](CC[C@H](C)/C=C\C=C\CC1)O[C@@](O)([C@@H]1CSC(=O)N1)C2` [Latrunculin-A] was tested, and the protrusions (EpH4 cells; EpH4, 15 minutes of suspension, Latrunculin-A 5 μM, Colchicine 1 μM, listed as latrunculin-A) was “significantly enhanced both the number and length of protrusions”, the “microtubule protrusions by immunofluorescence (α-tubulin)” value (EpH4 cells; EpH4 suspended 30 minutes, LA 5 μM, listed as LA) was “increase the number and length of microtubule protrusions; also recorded: strongly enhances the formation of microtubule protrusions” and the “cell-cell attachment (clustering)” value (EpH4-Bcl2 cells) was “did speed the rate at which cells bound to each other; also recorded: cluster similarly or even more tightly compared to control cells”. The protrusions [1] was “enhanced; also recorded: promotes the extension of microtubule protrusions”.
